Reference: patent publication US7999126B2, “Palladium(0)-dibenzylidene acetone complexes” (priority 2007, dated 2011)

Experiment: Solubility Test: CHCl3-insoluble residue of the product
Assay type: physicochemical
Details: 1.00 g product in 150 ml chloroform
Protocol: 1.00 g of the product are dissolved in 150 ml of chloroform and stirred at room temperature for 30 minutes. The solution is then aspirated through a membrane filter. The filter is washed with 30 ml of water and 30 ml of acetone and subsequently dried over night at 45° C. in vacuo.
1.00 g of the product were dissolved in 150 ml of chloroform and stirred for 30 minutes at room temperature. The solution was aspirated through a membrane filter. The filter was washed with 30 ml of water and 30 ml of acetone and subsequently dried over night at 45° C. in vacuo.
1.00 g of the product were dissolved in 150 ml of chloroform and stirred for 30 minutes at room temperature. The solution was aspirated through a membrane filter. The filter was washed with 30 ml of water and 30 ml of acetone, and the filter was subsequently dried over night at 45° C. in vacuo.

CHCl3-insoluble ingredients (room temperature): 0% | residue (Solubility Test) (stirred 30 minutes at room temperature, membrane filter, filter dried): 0%
Structure (SMILES): O=C(/C=C/c1ccccc1)/C=C/c1ccccc1.O=C(/C=C/c1ccccc1)/C=C/c1ccccc1.[Pd] [Experiment 1, Pd(dba)2]
